Assay results reported in patent publication US20130157345A1, “STABILIZATION AND ACTIVATION OF PROTEASE FOR USE AT HIGH TEMPERATURE” (ECOLAB USA INC., priority 2011, published 2013).

System: protein (gelatin) layers of photographic film
Test: Photographic film test: removal of gelatin protein layers by enzyme in heated water
Assay type: biochemical
Settings: 400 ppm additive, 160-170° F
From the text: Photographic film contains a layer of a binding agent that is a protein (gelatin) which is readily attacked and removed by protease under ambient conditions. The film has multiple colored layers of the gelatin binding agent which can serve as an indication of the degree of attack if exposed to suitable enzymes. Photographic film was used in experiments to show the ability of enzymes, proteases, to attach or remove the protein layer under various conditions.
In the experiments outlined in Table 1, a beaker was charged with 5 grain tap water. An activator, “Additive 1”, was added to the beaker with the water temperature adjusted to the temperature as shown in the “Temp (F) Additive 1” column. The solution was then adjusted for the film test to the temperature as shown in “Temp (F) Enzyme” and a protease enzyme and section of photographic film added. The solution was stirred for 5 minutes and the film recovered and wiped with a paper towel for visual examination.
The additive, enzyme and then the combination of protease enzyme and additives were heated to the temperatures indicated in the applicable columns to analyze the various conditions under which the protease enzyme was able to readily attack and removed the protein (gelatin) layers of the photographic film. […]

| Compound | additive function as activator/stabilizer of enzymes at elevated temperatures |
| --- | --- |
| O=C(O)[C@@H]1CCCN1 [proline] | function to activate and/or stabilize enzymes |
| cocoamidyl propyl butane [CAPB] | function to activate and/or stabilize enzymes |
